According to patent US5767116A, “Bicyclic aromatic compounds as therapeutic agents” (Knoll Atkiengesellschaft, priority 1993, dated 1998):
Counter-ions that a name gives are not always drawn. Like-named read-outs stand apart in the source and are kept apart here.

Experiments:
5-HT1A receptors = molecular target: T1, 5-HT1A receptors (Rattus norvegicus, UniProt P19327); experiment: biochemical; type: binding, rat (male Charles River CD); settings: for Ki: 25° C., 30 minutes
T1 sequence (P19327 1-422): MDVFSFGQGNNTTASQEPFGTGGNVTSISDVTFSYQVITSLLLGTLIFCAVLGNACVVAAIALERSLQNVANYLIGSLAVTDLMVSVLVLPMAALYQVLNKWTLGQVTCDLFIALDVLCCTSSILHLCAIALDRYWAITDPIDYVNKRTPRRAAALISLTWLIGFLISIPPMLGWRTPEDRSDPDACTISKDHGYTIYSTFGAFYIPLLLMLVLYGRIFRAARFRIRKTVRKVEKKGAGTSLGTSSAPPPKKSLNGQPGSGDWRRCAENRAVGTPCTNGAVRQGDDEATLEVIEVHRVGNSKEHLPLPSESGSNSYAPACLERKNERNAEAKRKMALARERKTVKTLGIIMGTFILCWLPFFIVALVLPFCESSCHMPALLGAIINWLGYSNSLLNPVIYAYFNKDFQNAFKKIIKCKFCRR
Method: The pellet was rehomogenised in the same buffer, incubated at 37° C. for 10 minutes and centrifuged at 30,000 g at 4° C. for 10 minutes. […] Aliquots (400 μl; equivalent to 2.5 mg wet weight of tissue/tube) of this suspension were added to tubes containing the ligand (50 μl; 2 nM) and distilled water (50 μl; total binding) or 5-HT (50 μl; 10 µM; non-specific binding) or test compound (50 μl; at a single concentration of 10^-6 M or at 10 concentrations ranging from 10^-11 -10^-3 M). The ligand was [^3 H]8-hydroxy-2-(dipropylamino)tetralin([^3 H]8-OH-DPAT) and the mixture was incubated at 25° C. for 30 minutes before the incubation was terminated by rapid filtration.
(§1) The filters were punched out into vials, scintillation fluid added and radioactivity determined by liquid scintillation counting. The percentage displacement of specific binding of the tritiated ligand was calculated for the single concentration (10^-6 M) of test compound. Displacement curves were then produced for those compounds which displaced ≥50% of specific binding of the tritiated ligand at 10^-6 M using a range of concentrations of the compound. […] The inhibition coefficient Ki was then calculated using the formula [formula] in which [ligand] is the concentration of the tritiated ligand used and KD is the equilibrium dissociation constant for the ligand.

α2-adrenoceptors = molecular target: T2, α2-adrenoceptors (Rattus norvegicus, UniProt P22909); experiment: inhibition of tritiated ligand (tritiated idazoxan) binding to α2-adrenoceptors in vitro (frontal cortical tissue); design: species or system rat (male Charles River CD); settings: for Ki: 0° C., 75 minutes, > from highest concentration which displaced ≤50% of the ligand; for inhibition at 1 µM: read-out: % displacement at 10^-6 M, α2, 10^-6 M, rat frontal cortical tissue, tritiated idazoxan
T2 sequence (P22909 1-465): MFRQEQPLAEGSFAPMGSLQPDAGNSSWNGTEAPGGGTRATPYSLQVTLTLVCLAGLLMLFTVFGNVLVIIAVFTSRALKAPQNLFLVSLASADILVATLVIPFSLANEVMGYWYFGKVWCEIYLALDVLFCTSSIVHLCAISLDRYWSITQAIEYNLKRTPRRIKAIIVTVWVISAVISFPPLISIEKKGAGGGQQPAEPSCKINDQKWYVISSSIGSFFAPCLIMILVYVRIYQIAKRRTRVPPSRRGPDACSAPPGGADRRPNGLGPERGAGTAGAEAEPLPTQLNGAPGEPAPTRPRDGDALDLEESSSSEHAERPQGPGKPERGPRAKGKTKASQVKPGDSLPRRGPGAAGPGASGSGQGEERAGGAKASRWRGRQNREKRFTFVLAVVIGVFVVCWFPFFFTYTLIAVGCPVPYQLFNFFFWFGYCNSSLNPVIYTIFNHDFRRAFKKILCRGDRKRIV
Method: Frontal cortical tissue from the brains of male Charles River CD rats weighing between 150-250 g were homogenised in ice-cold 0.25M sucrose (1:30 w/v) and centrifuged at 1,000 g at 4° C. for 12 minutes. The supernatant was stored on ice and the pellet was rehomogenised in 0.25M sucrose (1:15 w/v) and centrifuged at 850 g at 4° C. for 12 minutes. Combined supernatants were diluted with 5 mM Tris-HCl (pH 7.5) containing 0.5M ethylenediamine tetraacetic acid (EDTA) readjusted to pH 7.5 (at 25° C.) with 1M sodium hydroxide to 1:80 w/v, and centrifuged at 30,000 g at 4° C. for 10 minutes. The resulting pellet was resuspended in 5 mM Tris-HCl (pH 7.5) containing 5.68 mM L-ascorbic acid and 5 mM EDTA readjusted to pH 7.5 (at 25° C.) with 1M sodium hydroxide, and centrifuged at 30,000 g for 10 minutes. The final pellet was resuspended in 50 mM Tris-HCl (pH 7.5) containing 5.68 mM L-ascorbic acid and 5 mM EDTA (equivalent to 12.5 mg wet weight of tissue/ml) and used immediately in the binding assay. Aliquots (400 μl; equivalent to 5 mg wet weight of tissue/tube) of this suspension were added to tubes containing the ligand (50 μl; 1 nM) and distilled water (50 μl; total binding) or phentolamine (50 μl; 5 μM; non-specificbinding) or test compound (50 μl; at a single concentration of 10^-6 M or at 10 concentrations ranging from 10^-11 -10^-3 M). The ligand was tritiated idazoxan ((1,4-[6,7(n)-^3 H]benzodioxan-2-yl)-2-imidazoline hydrochloride) and the mixture was incubated at 0° C. for 75 minutes before the incubation was terminated by rapid filtration.
as §1, with “The filters were washed with ice-cold Tris-HCl buffer and dried. The filters” for “The filters”

D2 dopamine receptors = D2 dopamine receptors (Rattus norvegicus, UniProt P61169); experiment: biochemical; type: binding, rat (male Charles River CD)
α1-adrenoceptors = experiment: inhibition of tritiated ligand ([7-methoxy-^3 H]prazosin) binding to α1-adrenoceptors in vitro (whole cortical tissue); design: species or system rat (male Charles River CD); settings: rat whole cortical tissue; for Ki: 30° C., 30 minutes, > from highest concentration which displaced ≤50% of the ligand; for % displacement at 10^-6 M, α1: 30 min, 1 µM
Method: The supernatant was centrifuged at 30,000 g at 4° C. for 10 minutes. […] Aliquots (400 μl; equivalent to 5 mg wet weight of tissue/tube) of this suspension were added to tubes containing the ligand (50 μl; 0.1 nM) and distilled water (50 μl; total binding) or phentolamine (50 μl; 5 μM; non-specific binding) or test compound (50 μl; at a single concentration of 10^-6 M or at 10 concentrations ranging from 10^-11 -10^-3 M). The ligand was [7-methoxy-^3 H]prazosin and the mixture was incubated at 30° C. for 30 minutes before the incubation was terminated by rapid filtration.
as §1

[1] = rat hippocampal tissue, [^3 H]8-OH-DPAT
[2] = rat frontal cortical tissue, tritiated idazoxan
[3] = rat striatal tissue, tritiated (S)-sulpiride, 4° C., 40 minutes
[4] = 10^-6 M, rat hippocampal tissue, [^3 H]8-OH-DPAT, read-out: % displacement at 10^-6 M, 5-HT1A
[5] = read-out: % displacement at 10^-6 M, 5-HT1A, 10^-6 M, rat hippocampal tissue, [^3 H]8-OH-DPAT
[6] = 10^-6 M, rat hippocampal tissue, [^3 H]8-OH-DPAT

Chain of D2 dopamine receptors (P61169 whole entry): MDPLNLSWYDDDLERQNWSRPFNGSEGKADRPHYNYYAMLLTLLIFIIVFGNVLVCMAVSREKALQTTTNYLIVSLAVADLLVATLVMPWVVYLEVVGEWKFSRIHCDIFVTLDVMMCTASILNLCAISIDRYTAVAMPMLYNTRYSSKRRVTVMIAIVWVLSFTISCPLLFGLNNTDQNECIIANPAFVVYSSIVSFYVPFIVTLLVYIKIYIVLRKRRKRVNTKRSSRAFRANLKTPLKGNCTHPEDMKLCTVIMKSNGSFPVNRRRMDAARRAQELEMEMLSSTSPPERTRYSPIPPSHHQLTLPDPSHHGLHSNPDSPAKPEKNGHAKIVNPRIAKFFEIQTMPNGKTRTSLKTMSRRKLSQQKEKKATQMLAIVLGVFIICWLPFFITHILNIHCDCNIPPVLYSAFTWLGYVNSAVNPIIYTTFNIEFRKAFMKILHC

Row | Compound | Ki (5-HT1A receptors; [1]) [nM] | Ki (α2-adrenoceptors; [2]) [nM] | Ki (D2 dopamine receptors; [3]) [nM] | Ki (α1-adrenoceptors) [nM] | % displacement at 10^-6 M, α1 (α1-adrenoceptors) [%] | also measured
1 | FC(F)(F)c1cccnc1NCCNCC1COc2ccccc2O1 (stereo not drawn) [Example 8, N-(1,4-benzodioxan-2-ylmethyl)-N'-[3-(trifluoromethyl)-2-pyridyl)]-ethanediamine dihydrochloride] | 18.8 | 70 | 110 | 14 | – | –
2 | COc1cccc2c1CC(CNCC1CCN(c3ncccn3)CC1)CC2 (stereo not drawn) [Example 9, N-(8-methoxy-1,2,3,4-tetrahydronaphth-2-ylmethyl)-1-[1-(pyrimidin-2-yl)piperid-4-yl]methylamine 1.1 hydrochloride] | 8.2 | > 500 | 46.4 | 34 | – | –
3 | Oc1cccc2c1CC(CNCC1CCN(c3ncccn3)CC1)CC2 (stereo not drawn) [Example 10, 7-{N-[1-(pyrimidin-2-yl)piperid-4-ylmethyl}-aminomethyl)-5,6,7,8-tetrahydronaphth-1-ol dihydrobromide] | 7.7 | > 500 | 310 | 339 | – | –
4 | COc1cccc2c1CC(CNCC1CCN(c3ncccn3)CC1)CO2 (stereo not drawn) [Example 11, N-(5-methoxy-3,4-dihydro-2H-1-benzopyran-3-ylmethyl)-1-(1-(pyrimidin-2-yl)piperid-4-yl]methylamine monofumarate] | 14.7 | > 500 | 12.9 | 31 | – | –
5 | COc1ccccc1NCCCNCC1COc2cccc(OC)c2O1.O=C(O)/C=C\C(=O)O (stereo not drawn) [Example 17, N-(8-methoxy-1,4-benzodioxan-2-ylmethyl)-N'-(2-methoxyphenyl)-1,3-propanediamine maleate] | – | > 500 | 4.3 | – | 93 | inhibition at 1 µM (5-HT1A receptors; [4]): 99%
6 | COc1ccccc1N1CCC(CNCC2COc3cc(Cl)c(Cl)cc3O2)CC1 (stereo not drawn) [Example 21, N-(6,7-dichloro-1,4-benzodioxan-2-ylmethyl)-1-[1-(2-methoxyphenyl)piperid-4-yl]methylaminehydrochloride] | – | > 500 | – | > 500 | – | inhibition at 1 µM (5-HT1A receptors; [4]): 74%; inhibition at 1 µM (D2 dopamine receptors; 10^-6 M, rat striatal tissue, tritiated (S)-sulpiride, read-out: % displacement at 10^-6 M, D2): 104%
7 | Cl.Clc1ccccc1N1CCC(CNCC2COc3ccccc3O2)CC1 (stereo not drawn) [Example 22, N-(1,4-benzodioxan-2-ylmethyl)-1-[1-(2-chlorophenyl)piperid-4-yl]methylamine hydrochloride] | – | – | 43.5 | – | 71 | inhibition at 1 µM (5-HT1A receptors; [5]): 95%; inhibition at 1 µM (α2-adrenoceptors): 63%
8 | COc1ccccc1N1CCC(CNCC2COc3ccc4ccccc4c3O2)CC1 (stereo not drawn) [Example 24, 1-[1-(2-methoxyphenyl)piperid-4-yl]-N-(naphtho[1,2-b]dioxan-2-ylmethyl) methylamine hydrochloride 1.3 hydrate] | – | > 500 | 81.3 | > 500 | – | inhibition at 1 µM (5-HT1A receptors; [4]): 97%
9 | COc1cccc2c1OC(CNCC1CCN(c3cccc4c3OCC4)CC1)CO2.Cl (stereo not drawn) [Example 25, 1-[1-(2,3-dihydrobenzo[b]furan-7-yl)piperid-4-yl]-N-(8-methoxy-1,4-benzodioxan-2-ylmethyl) methylamine hydrochloride] | – | – | 20.9 | – | 99 | inhibition at 1 µM (5-HT1A receptors; [5]): 101%; inhibition at 1 µM (α2-adrenoceptors): 96%
10 | N-(5-fluoro-1,4-benzodioxan-2-ylmethyl)-1-[1-(2-methoxyphenyl) piperid-4-yl]methylamine hydrochloride and N-(8-fluoro-1,4-benzodioxan-2-ylmethyl)-1-[1-(2-methoxyphenyl) piperid-4-yl]methylamine hydrochloride [Example 23] | – | – | – | – | 92 | % displacement at 10^-6 M, 5-HT1A (5-HT1A receptors; [6]): 92%; % displacement at 10^-6 M, α2 (α2-adrenoceptors; 10^-6 M, rat frontal cortical tissue, tritiated idazoxan, 1 µM): 75%; Ki (D2 dopamine receptors): 43 nM
11 | N-(7-chloro-1,4-benzodioxan-2-ylmethyl)-1-[1-(2-methoxyphenyl) piperid-4-yl]methylamine and N-(6-chloro-1,4-benzodioxan-2-ylmethyl)-1-[1-(2-methoxy phenyl)-piperid-4-yl]methylamine 1.7 hydrochloride hydrate [Example 27] | – | > 500 | 61.7 | – | 58 | % displacement at 10^-6 M, 5-HT1A (5-HT1A receptors; [6]): 94%
12 | N-(7-chloro-1,4-benzodioxan-2-ylmethyl)-1-[1-(2-methoxyphenyl) piperid-4-yl]methylamine and N-(6-chloro-1,4-benzodioxan-2-ylmethyl)-1-[1-(2-methoxyphenyl) piperid-4-yl]methylamine hydrochloride hydrate [Example 26] | – | > 500 | 82.5 | > 500 | – | % displacement at 10^-6 M, 5-HT1A (5-HT1A receptors; [6]): 88%
